# Assay results from ChEMBL document CHEMBL1201862, “PubChem BioAssay data set” (2004).
# Active and inactive are the calls of the source.
# Tests used:
# Protein Rev [1] = target: Protein Rev (Human immunodeficiency virus type 1 group M subtype B (isolate WMJ22)(HIV-1), UniProt P05866); experiment: HIV-1 Rev-RRE RNA binding disruptors, dose response, biochemical, protein-RNA interaction (AID 842); parameters: species or system Human immunodeficiency virus 1
# [2] = target: T1, Polyadenylate-binding protein 1 (Homo sapiens, UniProt P11940); experiment: PABP1 MLLE–PAM2 interaction inhibitors, dose response, miRNA deadenylation inhibitor project, biochemical, fluorescence polarization, Cy5-PAM2 peptide, secondary (AID 602260); format: functional; settings: read-out: IC50_Mean
# T1 sequence (P11940 whole entry): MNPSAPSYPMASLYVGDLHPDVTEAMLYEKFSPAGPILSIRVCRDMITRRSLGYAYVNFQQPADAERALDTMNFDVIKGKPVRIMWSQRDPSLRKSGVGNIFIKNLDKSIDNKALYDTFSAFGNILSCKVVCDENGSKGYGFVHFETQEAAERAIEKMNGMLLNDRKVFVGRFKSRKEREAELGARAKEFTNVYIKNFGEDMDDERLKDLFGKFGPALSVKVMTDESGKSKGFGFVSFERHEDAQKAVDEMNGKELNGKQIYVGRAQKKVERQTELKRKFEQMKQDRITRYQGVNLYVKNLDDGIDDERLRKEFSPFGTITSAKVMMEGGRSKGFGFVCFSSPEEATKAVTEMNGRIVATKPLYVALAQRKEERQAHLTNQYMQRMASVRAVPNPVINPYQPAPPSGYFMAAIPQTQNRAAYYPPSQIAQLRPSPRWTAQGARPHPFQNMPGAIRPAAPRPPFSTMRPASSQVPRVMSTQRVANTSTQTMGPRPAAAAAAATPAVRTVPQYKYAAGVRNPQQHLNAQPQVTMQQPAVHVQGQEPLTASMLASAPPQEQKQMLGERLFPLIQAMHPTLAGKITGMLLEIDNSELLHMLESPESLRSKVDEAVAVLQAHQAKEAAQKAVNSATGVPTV
# [3] = target: Female germline-specific tumor suppressor gld-1 (Caenorhabditis elegans, UniProt Q17339); experiment: inhibitors of GLD-1 binding to TGE RNA, dose response, biochemical, fluorescence polarization, C. elegans (AID 2802);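 note: fluorescence polarization of labeled TGE RNA bound by purified gld-1 protein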
# [4] = target: T1, Polyadenylate-binding protein 1; experiment: PABP1 MLLE–PAM2 binding inhibitor potency, dose response, biochemical, fluorescence polarization, FITC-PAM2 peptide (AID 602259); format: functional; settings: read-out: IC50_Mean
# Protein Rev [5] = target: Protein Rev (Human immunodeficiency virus type 1 group M subtype B (isolate HXB2)(HIV-1), UniProt P04618); experiment: inhibitors of Rev binding to RRE RNA, dose response, biochemical, fluorescence polarization, HIV-1 (AID 434976); parameters: species or system Human immunodeficiency virus 1
# Mucolipin-3 [6] = target: T2, Mucolipin-3 (Homo sapiens, UniProt Q8TDD5); experiment: TRPML3 and TRPML2 channel agonists, cell-based, patch clamp, Fura-2 profiling panel, panel member TRPML3 Dose Response (AID 2116)
# T2 sequence (Q8TDD5 whole entry): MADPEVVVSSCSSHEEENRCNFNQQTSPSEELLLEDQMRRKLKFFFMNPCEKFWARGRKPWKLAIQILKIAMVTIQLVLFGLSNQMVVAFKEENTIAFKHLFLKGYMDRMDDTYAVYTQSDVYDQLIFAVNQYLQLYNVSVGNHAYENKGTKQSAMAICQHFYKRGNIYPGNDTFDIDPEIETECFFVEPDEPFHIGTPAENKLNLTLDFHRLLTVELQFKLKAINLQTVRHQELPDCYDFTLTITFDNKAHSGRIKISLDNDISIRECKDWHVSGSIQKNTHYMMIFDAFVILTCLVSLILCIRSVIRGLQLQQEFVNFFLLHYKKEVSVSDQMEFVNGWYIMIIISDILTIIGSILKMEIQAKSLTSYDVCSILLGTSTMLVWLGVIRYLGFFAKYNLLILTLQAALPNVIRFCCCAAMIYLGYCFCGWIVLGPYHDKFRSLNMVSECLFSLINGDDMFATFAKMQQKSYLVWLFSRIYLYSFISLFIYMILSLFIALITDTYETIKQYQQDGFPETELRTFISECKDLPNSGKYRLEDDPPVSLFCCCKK
# Mucolipin-3 [7] = target: T2, Mucolipin-3; experiment: Dose response cell-based high-throughput screening assay for agonists of the transient receptor potential channel ML3 (TRPML3). [Related pubchem assays: 1526, 1424, 1448 ]; format: functional
# Ion channel NompC [8] = target: T3, Ion channel NompC (Danio rerio, UniProt Q7T1G6); experiment: TRPML3 and TRPML2 channel agonists, cell-based, patch clamp, Fura-2 profiling panel, panel member TRPN1 Dose Response (AID 2116)
# T3 sequence (Q7T1G6 whole entry): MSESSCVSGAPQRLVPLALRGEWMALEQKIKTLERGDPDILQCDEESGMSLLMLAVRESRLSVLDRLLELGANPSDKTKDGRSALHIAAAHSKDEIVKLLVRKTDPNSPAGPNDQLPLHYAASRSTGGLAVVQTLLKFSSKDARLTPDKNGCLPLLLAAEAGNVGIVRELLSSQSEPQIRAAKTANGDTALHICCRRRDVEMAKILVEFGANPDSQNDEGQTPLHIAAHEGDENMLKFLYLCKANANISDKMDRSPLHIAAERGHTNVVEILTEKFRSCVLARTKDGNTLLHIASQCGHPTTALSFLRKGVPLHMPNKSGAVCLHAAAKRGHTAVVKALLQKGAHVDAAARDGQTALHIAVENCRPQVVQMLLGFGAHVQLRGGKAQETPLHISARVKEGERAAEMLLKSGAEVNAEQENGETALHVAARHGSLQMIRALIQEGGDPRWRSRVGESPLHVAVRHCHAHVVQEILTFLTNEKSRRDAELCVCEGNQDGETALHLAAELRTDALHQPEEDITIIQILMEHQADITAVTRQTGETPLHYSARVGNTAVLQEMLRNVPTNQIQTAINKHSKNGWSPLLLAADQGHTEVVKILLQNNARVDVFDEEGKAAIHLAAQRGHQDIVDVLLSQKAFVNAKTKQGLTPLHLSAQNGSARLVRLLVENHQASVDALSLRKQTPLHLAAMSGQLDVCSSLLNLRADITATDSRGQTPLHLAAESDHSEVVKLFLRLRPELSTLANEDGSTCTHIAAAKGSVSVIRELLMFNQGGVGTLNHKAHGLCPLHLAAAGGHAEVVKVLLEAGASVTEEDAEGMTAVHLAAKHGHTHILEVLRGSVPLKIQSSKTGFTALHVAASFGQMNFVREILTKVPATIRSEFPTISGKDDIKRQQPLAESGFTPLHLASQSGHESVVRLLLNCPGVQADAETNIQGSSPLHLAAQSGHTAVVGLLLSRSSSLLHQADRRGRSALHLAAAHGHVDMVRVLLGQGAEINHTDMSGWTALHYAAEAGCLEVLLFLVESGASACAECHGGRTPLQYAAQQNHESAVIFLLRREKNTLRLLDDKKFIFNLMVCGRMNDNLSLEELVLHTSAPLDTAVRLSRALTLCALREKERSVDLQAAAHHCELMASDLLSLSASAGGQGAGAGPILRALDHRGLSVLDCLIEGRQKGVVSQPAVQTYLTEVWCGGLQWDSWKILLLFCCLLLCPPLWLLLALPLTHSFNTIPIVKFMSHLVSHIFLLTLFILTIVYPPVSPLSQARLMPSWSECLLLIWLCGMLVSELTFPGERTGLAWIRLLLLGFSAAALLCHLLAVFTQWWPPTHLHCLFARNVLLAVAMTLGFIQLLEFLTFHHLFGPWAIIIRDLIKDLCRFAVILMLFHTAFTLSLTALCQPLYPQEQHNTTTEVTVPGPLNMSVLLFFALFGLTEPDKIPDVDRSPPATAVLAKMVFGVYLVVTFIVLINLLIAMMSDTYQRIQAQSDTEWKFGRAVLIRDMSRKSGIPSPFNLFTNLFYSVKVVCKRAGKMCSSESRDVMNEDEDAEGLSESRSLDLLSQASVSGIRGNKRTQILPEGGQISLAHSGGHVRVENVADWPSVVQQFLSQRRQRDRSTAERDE
# Ion channel NompC [9] = target: T3, Ion channel NompC; experiment: Fluorescence counterscreen assay for TRPML3 agonists: dose response cell-based high-throughput screening assay to identify agonists of the transient receptor potential channel N1 (TRPN1). [Related pubchem assays: 1526, 1424, 1448 ]; format: functional
# [10] = target: Dual specificity protein phosphatase 3 (Homo sapiens, UniProt P51452); experiment: VHR1 inhibitor Ki determination, SAR follow-up, biochemical, colorimetric (AID 2004)
# Dual specificity protein phosphatase 3, sequence (P51452 whole entry): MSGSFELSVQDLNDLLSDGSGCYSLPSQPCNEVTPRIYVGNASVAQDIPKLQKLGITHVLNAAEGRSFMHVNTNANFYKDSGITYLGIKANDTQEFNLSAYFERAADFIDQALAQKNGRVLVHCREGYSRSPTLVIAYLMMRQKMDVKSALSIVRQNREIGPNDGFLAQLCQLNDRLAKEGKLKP
# [11] = Luminescence Cell-Based Dose Retest to Confirm Inhibitors of Cancer Stem Cells. [Related pubchem assays (depositor defined):AID2717, AID2721]; format: functional; settings: Homo sapiens
# INS1 = experiment: beta cell apoptosis inhibitors, cytokine rescue, dose response, luminescence, retest (AID 449756); format: functional, cell-based; settings: Rattus norvegicus;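 note: cell death triggered by IL-1 beta plus TNF-alpha plus IFN-gamma mixture; protective hits raise ATP signal compared with cytokine alone wells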
# [12] = target: Neurotensin receptor type 1 (Homo sapiens, UniProt P30989); format: functional;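 note: Image-based confirmatory dose-response assay measuring agonist activity at NTR1; NTR1-expressing U2OS osteosarcoma cells imaged for beta-arrestin GFP spot formation; agonist potency where compounds increase beta-arrestin recruitment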
# Neurotensin receptor type 1, sequence (P30989 whole entry, the tested form may be a part): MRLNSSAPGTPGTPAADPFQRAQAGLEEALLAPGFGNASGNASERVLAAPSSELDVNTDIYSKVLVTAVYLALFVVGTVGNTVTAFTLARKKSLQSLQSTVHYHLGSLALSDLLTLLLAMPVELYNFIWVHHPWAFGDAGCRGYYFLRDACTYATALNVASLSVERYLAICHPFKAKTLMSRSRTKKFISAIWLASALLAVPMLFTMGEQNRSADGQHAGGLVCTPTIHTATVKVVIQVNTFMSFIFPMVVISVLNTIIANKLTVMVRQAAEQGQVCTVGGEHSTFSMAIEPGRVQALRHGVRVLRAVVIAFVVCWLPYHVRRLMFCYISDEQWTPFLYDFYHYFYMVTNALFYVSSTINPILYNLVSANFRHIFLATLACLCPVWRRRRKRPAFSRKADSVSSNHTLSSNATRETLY
# [13] = target: Nucleotide-binding oligomerization domain-containing protein 1 (Homo sapiens, UniProt Q9Y239); experiment: NOD1 signaling inhibitors, SAR follow-up, revised (AID 2333); format: functional
# [14] = target: Nucleotide-binding oligomerization domain-containing protein 2 (Homo sapiens, UniProt Q9HC29); experiment: PubChem AID 2334; format: functional
# HEK293 = experiment: cells; settings: Homo sapiens;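 note: cells exposed to compound for 14 hours overnight before viability readout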
# Tumor necrosis factor = Tumor necrosis factor (Homo sapiens, UniProt P01375); experiment: TNFa-triggered NF-kB activation inhibitors, SAR follow-up, cell-based, revised (AID 2337); format: functional
# [15] = target: T4, Dual specificity protein phosphatase 6 (Rattus norvegicus, UniProt Q64346)
# T4 sequence (Q64346 whole entry): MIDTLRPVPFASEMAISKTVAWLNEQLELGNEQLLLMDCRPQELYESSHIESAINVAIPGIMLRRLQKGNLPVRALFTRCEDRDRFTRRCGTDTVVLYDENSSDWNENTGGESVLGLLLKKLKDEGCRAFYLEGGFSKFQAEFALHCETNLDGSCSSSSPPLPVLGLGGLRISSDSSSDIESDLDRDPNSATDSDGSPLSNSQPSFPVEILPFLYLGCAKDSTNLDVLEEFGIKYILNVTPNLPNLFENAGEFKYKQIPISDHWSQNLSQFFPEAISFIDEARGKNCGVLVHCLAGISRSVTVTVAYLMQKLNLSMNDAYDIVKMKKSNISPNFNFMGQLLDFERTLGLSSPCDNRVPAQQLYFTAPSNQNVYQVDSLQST
# [16] = target: T5, Tyrosine-protein phosphatase non-receptor type 7 (Homo sapiens, UniProt P35236); format: functional
# T5 sequence (P35236 whole entry): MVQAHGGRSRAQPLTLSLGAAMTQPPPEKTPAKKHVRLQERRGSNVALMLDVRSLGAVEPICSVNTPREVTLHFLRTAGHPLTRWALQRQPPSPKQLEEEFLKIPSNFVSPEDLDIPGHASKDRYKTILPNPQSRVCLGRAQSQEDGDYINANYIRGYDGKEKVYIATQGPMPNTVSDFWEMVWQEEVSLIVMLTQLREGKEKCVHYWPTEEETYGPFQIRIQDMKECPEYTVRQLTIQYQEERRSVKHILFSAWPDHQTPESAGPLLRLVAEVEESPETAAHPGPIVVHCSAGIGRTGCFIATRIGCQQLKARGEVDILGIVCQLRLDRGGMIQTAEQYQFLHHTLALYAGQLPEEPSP
# [17] = target: T4, Dual specificity protein phosphatase 6; format: functional
# [18] = target: Glyceraldehyde-3-phosphate dehydrogenase (Homo sapiens, UniProt P04406)
# Glyceraldehyde-3-phosphate dehydrogenase, sequence (P04406 whole entry): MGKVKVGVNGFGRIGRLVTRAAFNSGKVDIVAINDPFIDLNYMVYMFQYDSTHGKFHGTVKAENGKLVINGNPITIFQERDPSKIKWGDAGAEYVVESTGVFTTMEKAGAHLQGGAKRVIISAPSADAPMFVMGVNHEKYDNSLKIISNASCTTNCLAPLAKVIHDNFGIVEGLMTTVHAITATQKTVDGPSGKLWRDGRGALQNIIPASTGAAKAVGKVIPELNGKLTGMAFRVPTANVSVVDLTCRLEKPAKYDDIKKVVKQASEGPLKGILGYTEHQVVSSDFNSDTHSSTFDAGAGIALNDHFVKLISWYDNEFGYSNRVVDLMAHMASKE
# Staphylococcus aureus = experiment: Inhibitors of Bacterial Quorum Sensing Structure Activity Relationship (SAR) Analysis: Dose Response Assay. [Related pubchem assays: 700, 527 ]; format: functional, organism-based
# [19] = Luminescence Cell-Based Dose Response HTS to Identify Activators of Luciferase Translation or Activity in H4 […] Cells. [Related pubchem assays: 1829 (Project Summary), 1814 (Primary HTS)]; format: functional
# H4 = experiment: Luminescence Cell-Based Dose Response HTS to Identify Activators of 5'UTR Stem-Loop Driven Prion Protein mRNA Translation in H4 Neuroglioblastoma Cells. [Related pubchem assays: 1829 (Project Summary), 1814 (Primary HTS)]; format: functional; settings: Homo sapiens
# [20] = target: T6, Alkaline phosphatase, tissue-nonspecific isozyme (Homo sapiens, UniProt P05186)
# T6 sequence (P05186 whole entry): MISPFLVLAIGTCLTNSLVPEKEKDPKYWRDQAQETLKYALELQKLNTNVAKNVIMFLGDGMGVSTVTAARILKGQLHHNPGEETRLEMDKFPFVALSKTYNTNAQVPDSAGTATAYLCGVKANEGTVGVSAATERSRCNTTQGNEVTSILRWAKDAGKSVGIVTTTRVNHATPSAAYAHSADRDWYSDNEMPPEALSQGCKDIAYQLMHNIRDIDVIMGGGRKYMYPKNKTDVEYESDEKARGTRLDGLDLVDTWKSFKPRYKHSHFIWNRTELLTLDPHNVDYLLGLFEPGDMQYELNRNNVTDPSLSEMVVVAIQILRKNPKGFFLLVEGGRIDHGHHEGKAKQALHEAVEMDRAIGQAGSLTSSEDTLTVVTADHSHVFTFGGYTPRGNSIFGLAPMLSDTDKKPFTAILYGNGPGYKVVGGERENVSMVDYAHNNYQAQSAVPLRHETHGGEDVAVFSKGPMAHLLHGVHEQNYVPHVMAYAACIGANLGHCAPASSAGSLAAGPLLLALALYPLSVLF
# [21] = enhancers of respiration in Yfh1-depleted yeast, dose response, Friedreich's ataxia, plus single-dose screen (AID 1465); format: functional;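 note: yeast depleted of Yfh1p frataxin homolog grown on glycerol needing respiration; WST-1 tetrazolium dye reduction as measure of cellular dehydrogenase metabolic activity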
# Leucine aminopeptidase = target: T7, Leucine aminopeptidase (Plasmodium falciparum 3D7, UniProt Q8IL11); experiment: P. falciparum M17LAP inhibitors, primary screen, biochemical, fluorogenic H-Leu-NHMec substrate, 1536-well (AID 1619); format: functional
# T7 sequence (Q8IL11 whole entry): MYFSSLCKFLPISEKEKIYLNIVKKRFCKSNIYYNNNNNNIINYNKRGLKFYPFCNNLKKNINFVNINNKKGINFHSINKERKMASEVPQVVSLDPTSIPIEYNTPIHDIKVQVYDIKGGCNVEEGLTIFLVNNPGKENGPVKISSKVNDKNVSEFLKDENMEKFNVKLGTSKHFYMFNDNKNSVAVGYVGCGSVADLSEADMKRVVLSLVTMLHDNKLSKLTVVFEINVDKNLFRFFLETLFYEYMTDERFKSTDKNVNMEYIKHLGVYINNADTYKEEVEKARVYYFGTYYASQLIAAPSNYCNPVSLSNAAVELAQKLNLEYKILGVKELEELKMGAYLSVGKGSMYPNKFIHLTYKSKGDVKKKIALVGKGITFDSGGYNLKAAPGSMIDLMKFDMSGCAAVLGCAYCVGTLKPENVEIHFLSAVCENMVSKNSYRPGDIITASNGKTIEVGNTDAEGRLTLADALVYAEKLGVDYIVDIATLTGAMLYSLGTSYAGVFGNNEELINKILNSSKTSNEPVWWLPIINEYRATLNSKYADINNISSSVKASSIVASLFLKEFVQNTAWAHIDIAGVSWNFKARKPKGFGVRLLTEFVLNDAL
# Beta-lactamase [22] = target: Beta-lactamase (Salmonella choleraesuis (strain SC-B67), UniProt Q5J463)
# Beta-lactamase [23] = target: Beta-lactamase (Pseudomonas aeruginosa, UniProt Q79MP6);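 note: biochemical dose-response test of metallo-beta-lactamase enzyme inhibition, read out by epi-absorbance; purified recombinant IMP-1 metallo-beta-lactamase with nitrocefin as substrate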
# [24] = target: G-protein coupled receptor 35 (Homo sapiens, UniProt Q9HC97); experiment: GPR35 antagonists blocking zaprinast-driven arrestin recruitment, primary screen, imaging, U2OS, beta-arrestin-GFP, zaprinast agonist (AID 2058); format: functional;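 note: antagonist potency meaning inhibition of agonist-induced arrestin redistribution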
# [25] = target: T8, Calpain-2 catalytic subunit (Sus scrofa, UniProt P43367); experiment: pig calpain II inhibitor potency, dose response, biochemical, fluorogenic peptide substrate (AID 1420); format: functional
# T8 sequence (P43367 whole entry): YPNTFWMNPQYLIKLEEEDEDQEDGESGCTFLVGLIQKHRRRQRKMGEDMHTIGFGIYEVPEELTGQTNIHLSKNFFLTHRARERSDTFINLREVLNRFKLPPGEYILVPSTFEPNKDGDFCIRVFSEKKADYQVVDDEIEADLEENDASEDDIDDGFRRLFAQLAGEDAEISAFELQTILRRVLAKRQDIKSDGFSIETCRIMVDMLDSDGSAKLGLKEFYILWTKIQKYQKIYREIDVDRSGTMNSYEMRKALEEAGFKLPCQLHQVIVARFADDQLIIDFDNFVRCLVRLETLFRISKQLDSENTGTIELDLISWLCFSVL
# [26] = target: Melanin-concentrating hormone receptor 1 (Homo sapiens, UniProt Q99705); experiment: Late-stage fluorescence-based counterscreen for antagonists of the G-protein coupled receptor 7 (GPR7): cell-based dose response assay to identify antagonists of the melanin-concentrating hormone receptor 1 (MCHR1). [Related pubchem assays (depositor defined):AID1861, AID1880, AID1952, AID2148, AID2251, AID2257, AID485339]; format: functional;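 note: stimulated with 30 nM MCH peptide agonist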
# Streptococcus = experiment: Luminescence Microorganism-Based Dose Response Follow up to Identify Compounds Cytotoxic to Streptococcus. [Related pubchem assays: 1677 (Project Summary), 1915, 1914, 1902 (Retest at Dose), 1900 (Counter Screen), 1662 (Primary HTS)]; format: functional, organism-based
# [27] = target: T9, Eukaryotic translation initiation factor 2-alpha kinase 3 (Homo sapiens, UniProt Q9NZJ5); experiment: Counterscreen assay for PERK inhibitors: Dose response cell-based high throughput screening assay to measure inhibition of PERK at 6 hours. [Related pubchem assays: 1522, 1416 ]; format: functional
# T9 sequence (Q9NZJ5 whole entry): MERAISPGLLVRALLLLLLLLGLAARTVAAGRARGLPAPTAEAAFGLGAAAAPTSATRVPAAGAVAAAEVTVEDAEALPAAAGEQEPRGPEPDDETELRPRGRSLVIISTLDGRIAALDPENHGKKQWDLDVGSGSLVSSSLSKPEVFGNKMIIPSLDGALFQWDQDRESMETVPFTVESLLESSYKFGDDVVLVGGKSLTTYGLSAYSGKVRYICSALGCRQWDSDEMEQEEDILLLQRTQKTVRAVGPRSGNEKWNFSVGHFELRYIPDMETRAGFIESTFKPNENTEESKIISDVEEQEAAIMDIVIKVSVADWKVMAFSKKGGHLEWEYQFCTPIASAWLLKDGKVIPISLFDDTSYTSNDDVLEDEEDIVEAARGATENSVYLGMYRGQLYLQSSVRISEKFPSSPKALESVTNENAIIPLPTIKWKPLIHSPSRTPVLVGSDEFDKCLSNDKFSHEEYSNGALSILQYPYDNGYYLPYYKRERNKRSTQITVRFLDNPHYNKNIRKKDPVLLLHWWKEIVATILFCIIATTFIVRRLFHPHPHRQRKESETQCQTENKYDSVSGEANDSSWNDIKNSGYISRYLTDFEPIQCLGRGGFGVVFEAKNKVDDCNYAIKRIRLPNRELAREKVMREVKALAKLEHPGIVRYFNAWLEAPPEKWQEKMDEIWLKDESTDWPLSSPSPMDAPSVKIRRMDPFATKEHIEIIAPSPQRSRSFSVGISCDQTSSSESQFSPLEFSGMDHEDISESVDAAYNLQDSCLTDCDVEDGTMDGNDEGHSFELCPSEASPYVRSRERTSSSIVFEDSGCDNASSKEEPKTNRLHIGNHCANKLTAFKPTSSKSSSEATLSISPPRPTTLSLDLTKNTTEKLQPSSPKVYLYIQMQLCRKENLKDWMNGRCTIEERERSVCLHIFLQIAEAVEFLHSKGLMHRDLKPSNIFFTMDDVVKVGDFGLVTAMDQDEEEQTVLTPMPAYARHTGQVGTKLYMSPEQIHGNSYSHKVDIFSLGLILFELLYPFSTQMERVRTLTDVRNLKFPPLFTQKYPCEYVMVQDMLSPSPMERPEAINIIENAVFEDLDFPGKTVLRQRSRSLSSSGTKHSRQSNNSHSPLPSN
# [28] = target: T9, Eukaryotic translation initiation factor 2-alpha kinase 3; experiment: Dose response cell-based high-throughput screening assay to measure PERK inhibition. [Related pubchem assays: 1416 ]; format: functional
# [29] = target: NACHT, LRR and PYD domains-containing protein 3 (Homo sapiens, UniProt Q96P20); experiment: NALP3 inhibitors in yeast, dose response, luminescent (AID 488799); format: functional
# Protein Rev (Human immunodeficiency virus type 1 group M subtype B (isolate WMJ22)(HIV-1), UniProt P05866), sequence (P05866 whole entry): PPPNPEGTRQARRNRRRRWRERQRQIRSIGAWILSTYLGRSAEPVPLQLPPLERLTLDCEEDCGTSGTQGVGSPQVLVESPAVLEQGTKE
compound,measurement,setting,value
COc1cccc(Nc2nc(N)nc(-c3oc4ccccc4c3C)n2)c1,IC50,Protein Rev [1],> 79.4 µM (not active)
COc1ccc2nc(N3CCCCC3)c(C#N)cc2c1,IC50,[2],> 66 µM (inactive)
same,IC50,[3],6.28 µM (active)
same,IC50,[4],18.5 µM (active)
same,IC50,Protein Rev [5],14.8 µM (not active)
O=S(=O)(Nc1ccccc1N1CCCCC1)c1ccc(Cl)s1,EC50,Mucolipin-3 [6],0.62 µM (active)
same,EC50,Mucolipin-3 [7],0.872 µM (active)
same,EC50,Ion channel NompC [8],> 29.9 µM (inactive)
same,EC50,Ion channel NompC [9],> 29.9 µM (not active)
CC(Oc1ccc2oc(-c3ccccc3)c(C(=O)O)c2c1)C(=O)O (stereo unspecified),Ki,[10],102 µM (inactive)
COc1cc(OC)c2cc(C(=O)N/N=C/c3cccc(OC)c3O)[nH]c2c1,AC50,[11],3.97 µM (active)
same,AC50,INS1,3.8 µM (active)
same,EC50,[12],19.3 µM (active)
N#Cc1ccc(C(=O)Nc2nc3ccccc3n2Cc2ccc(Cl)cc2)cc1,IC50,[13],> 20 µM (inactive)
same,IC50,[14],> 20 µM (inactive)
same,IC50,HEK293,> 20 µM (inactive)
same,IC50,Tumor necrosis factor,> 20 µM (inactive)
Cn1c(SCC(=O)O)nc2sc3c(c2c1=O)CCC3,IC50,[15],> 100 µM (inactive)
same,IC50,[16],> 100 µM (not active)
same,IC50,[17],> 100 µM (inactive)
same,IC50,[18],> 100 µM (not active)
CC(=O)c1cc2c(cc1NC(=O)CN1CCN(C(c3ccccc3)c3ccccc3)CC1)OCO2,IC50,Staphylococcus aureus,1.51 µM (active)
Cc1ccc(-c2cc(-c3ccccc3[N+](=O)[O-])[nH]n2)c(O)c1,EC50,[19],2.35 µM (inconclusive)
same,EC50,H4,> 120 µM (not active)
same,EC50,[20],80.2 µM (not active)
CN1CCN(C2=CC3=CC(=C(C#N)C#N)CCC3CC2)CC1 (stereo unspecified),EC50,[21],> 100 µM (active)
same,IC50,Leucine aminopeptidase,100 µM (active)
same,IC50,Beta-lactamase [22],2.28 µM (active)
same,IC50,Beta-lactamase [23],3.5 µM (active)
same,IC50,[24],2.76 µM (active)
same,IC50,[25],13.9 µM (not active)
COc1ccc(Oc2c(Cl)cnn(-c3ccc(C(C)C)c(C)c3)c2=O)cc1,IC50,[26],2 µM (active)
CC(C)(C)N/N=C1\CC(c2ccccc2)Oc2ccccc21 (stereo unspecified),EC50,Streptococcus,> 500 µM (not active)
Cn1nccc1NC(=O)Nc1ccc(OC(F)(F)F)cc1,EC50,[27],> 55.7 µM (not active)
same,EC50,[28],> 55.7 µM (not active)
COc1cccc(NC(=O)c2ccccc2)c1,IC50,[29],13.7 µM (active)
